Counter-ions that a name gives are not always drawn. A value given as a limit tells only on which side of the number the result lay.

T1 sequence (Q96P20 whole entry): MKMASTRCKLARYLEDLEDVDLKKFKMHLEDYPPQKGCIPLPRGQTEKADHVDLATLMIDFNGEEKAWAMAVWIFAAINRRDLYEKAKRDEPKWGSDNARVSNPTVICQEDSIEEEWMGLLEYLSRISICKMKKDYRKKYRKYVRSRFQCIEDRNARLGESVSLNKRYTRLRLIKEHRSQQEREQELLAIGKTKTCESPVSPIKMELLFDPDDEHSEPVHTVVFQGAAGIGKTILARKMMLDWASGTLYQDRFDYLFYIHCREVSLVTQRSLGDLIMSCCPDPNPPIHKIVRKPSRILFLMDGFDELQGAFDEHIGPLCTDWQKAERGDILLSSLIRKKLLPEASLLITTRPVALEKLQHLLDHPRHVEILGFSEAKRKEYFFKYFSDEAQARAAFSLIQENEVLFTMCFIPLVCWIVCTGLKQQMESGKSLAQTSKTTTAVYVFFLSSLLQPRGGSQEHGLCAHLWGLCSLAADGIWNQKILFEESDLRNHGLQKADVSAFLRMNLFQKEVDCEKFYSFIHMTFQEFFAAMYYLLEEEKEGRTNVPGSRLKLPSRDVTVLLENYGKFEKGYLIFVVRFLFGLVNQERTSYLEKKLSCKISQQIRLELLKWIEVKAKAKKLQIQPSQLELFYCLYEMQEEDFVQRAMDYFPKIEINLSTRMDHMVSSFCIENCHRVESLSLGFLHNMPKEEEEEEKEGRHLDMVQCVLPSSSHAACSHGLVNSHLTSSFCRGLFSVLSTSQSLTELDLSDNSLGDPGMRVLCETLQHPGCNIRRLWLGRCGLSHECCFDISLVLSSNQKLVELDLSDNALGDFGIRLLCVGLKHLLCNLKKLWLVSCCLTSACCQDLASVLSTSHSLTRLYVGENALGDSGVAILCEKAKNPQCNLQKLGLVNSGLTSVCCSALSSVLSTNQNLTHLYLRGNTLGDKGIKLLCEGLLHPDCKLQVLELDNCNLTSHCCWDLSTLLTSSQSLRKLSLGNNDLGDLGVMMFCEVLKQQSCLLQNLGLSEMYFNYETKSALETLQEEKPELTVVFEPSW

This test concerns the target T1, NLRP3 inflammasome (Homo sapiens, UniProt Q96P20).
T1 construct: endogenous in cells; host or cells: THP-1 monocytic cells
Put plainly: IL-1β secretion assay (NLRP3 IC50) in LPS-primed, nigericin-activated THP-1 cells, HTRF. It counts as cell-based. Conditions: monocytic THP-1 cells; LPS 10 ng/mL 3 h priming, then compound + nigericin 10 μM 2 h; relative IC50, 10 concentrations, geometric mean. The method, then:
Monocytic THP-1 cells were maintained in RPMI 1640 media (Gibco 21875)+10% FBS, (Gibco 10500)+1% penicillin/streptomycin (Gibco 15140-122). Cells were then plated at 40,000 cells per well in 384-well cell culture plates (CoRNning 3542) and maintained with RPMI1640 (Gibco 11835)+5% FBS (Gibco 10500). Activation of the NLRP3 inflammasome requires both an NF-kB-dependent priming step and the addition of a NLRP3 activator. The priming step was induced by LPS (10 ng/mL, InvivoGen ref tlrl-3pelps) for 3 h at 37° C., then compound, in a 1:3 serial dilution series in DMSO (final concentration DMSO 0.1%), and the activator nigericin (Sigma Aldrich, ref: SML1779) 10 μM (final concentration) were added to the cells and co-incubated for 2 hours. 16 μL supernatant was removed, and IL-1β levels were monitored using an HTRF assay (Human IL1b Kits HTRF Cisbio ref: 62HILBPEH) according to manufacturers' instructions.
Data were expressed as percentage of inhibition (I %) as compared to a maximum signal control containing no small molecule (I %=0%) according to the formula: 1%=(1−((Sample−Min))/((Max−Min)))×100, where: • Sample: Signal obtained in the presence of each compound tested, • Max: Maximum signal in the absence of compound added, • Min: Minimum or background signal obtained in the absence of activation signal.
Relative IC50 (IC50 rel) were obtained from a dose response curve with 10 concentrations. Final IC50 rels are expressed as the geometric mean.
Relative IC50 values were estimated with Biost@t-SPEED v2.4 internal software based on SAS system using the 4-parameter logistic model according to Ratkovsky and Reedy (D. A. Ratkovsky, T. J. Reedy, Choosing near-linear parameters in the four parameters logistic model radioligands and related assays. Biometrics, 42 (1986), 575-582): Y=A+C/((1+exp(−B*(log(X)−M)))), where: • A: Lower asymptote (BOTTOM), • A+C: Upper asymptote (TOP), • M: the logarithm of the concentration estimated at the inflexion point (the logarithm of the relative IC50), • B: Slope at the inflexion point of the curve.
For orientation: Time-resolved FRET reads energy transfer from a long-lived donor to a nearby acceptor.
A word on the IC50: it is the concentration that gives 50% inhibition. Take `Cc1cc(C)c(-c2ccc(N3CCO[C@@H]4COCC[C@@H]43)nn2)c(O)c1` (racemic) [Example 111, 2-[6-[rac-(4aS,8aS)-3,4a,5,7,8,8a-hexahydro-2H-pyrano[3,4-b][1,4]oxazin-1-yl]pyridazin-3-yl]-3,5-dimethyl-phenol]: the IC50 is 496 nM.
With `Cc1cc(C)c(-c2ccc(N3CCO[C@@H]4CNC[C@H]43)nn2)c(O)c1` (racemic) [Example 190, 2-[6-[rac-(4aR,7aR)-3,4a,5,6,7,7a-hexahydro-2H-pyrrolo[3,4-b][1,4]oxazin-4-yl]pyridazin-3-yl]-3,5-dimethylphenol], the IC50 was 1150 nM.
The same measure for `CC(=O)N1C[C@@H]2OCCN(c3ccc(-c4c(C)cc(C)cc4O)nn3)[C@H]2C1` (racemic) [Example 257, 1-[rac-(4aS,7aS)-4-[6-(2-hydroxy-4,6-dimethylphenyl)pyridazin-3-yl]-2,3,4a,5,7,7a-hexahydropyrrolo[3,4-b][1,4]oxazin-6-yl]ethanone]: 7490 nM.
Under `Cc1cc(C(F)(F)F)cc(O)c1-c1ccc(N2CCO[C@@H]3CN(C)C[C@H]32)nn1` (racemic) [Example 289, 3-methyl-2-[6-[rac-(4aR,7aR)-6-methyl-2,3,4a,5,7,7a-hexahydropyrrolo[3,4-b][1,4]oxazin-4-yl]pyridazin-3-yl]-5-(trifluoromethyl)phenol] stands 140 nM; under `Cc1cc(C)c(-c2ccc(N3CCC[C@@H]4CCN(C)C(=O)[C@@H]43)nn2)c(O)c1` (racemic) [Example 290, rac-(4aR,8aR)-1-[6-(2-hydroxy-4,6-dimethyl-phenyl)pyridazin-3-yl]-7-methyl-3,4,4a,5,6,8a-hexahydro-2H-1,7-naphthyridin-8-one], 145 nM.
Under `Cc1cc(C)c(-c2ccc(N3CCC[C@@H]4CCNC(=O)[C@@H]43)nn2)c(O)c1` (racemic) [Example 300, rac-(4aR,8aR)-1-[6-(2-hydroxy-4,6-dimethyl-phenyl)pyridazin-3-yl]-2,3,4,4a,5,6,7,8a-octahydro-1,7-naphthyridin-8-one] stands 177 nM; under `Cc1cc(C(F)(F)F)cc(O)c1-c1ccc(N2CCO[C@@H]3CNC[C@H]32)nn1` (racemic) [Example 318, 3-methyl-2-[6-[rac-(4aR,7aR)-3,4a,5,6,7,7a-hexahydro-2H-pyrrolo[3,4-b][1,4]oxazin-4-yl]pyridazin-3-yl]-5-(trifluoromethyl)phenol; hydrochloride], 883 nM; under `Cc1cc(C(F)(F)F)cc(O)c1-c1ccc(N2CCO[C@H]3CNC[C@H]32)nn1` (racemic) [Example 320, 3-methyl-2-[6-[rac-(4aR,7aS)-3,4a,5,6,7,7a-hexahydro-2H-pyrrolo[3,4-b][1,4]oxazin-4-yl]pyridazin-3-yl]-5-(trifluoromethyl)phenol], 116 nM.
In the case of `CC(=O)N1C[C@@H]2OCCN(c3ccc(-c4c(C)cc(C(F)(F)F)cc4O)nn3)[C@@H]2C1` (racemic) [Example 335, 1-[rac-(4aR,7aS)-4-[6-[2-hydroxy-6-methyl-4-(trifluoromethyl)phenyl]pyridazin-3-yl]-2,3,4a,5,7,7a-hexahydropyrrolo[3,4-b][1,4]oxazin-6-yl]ethanone], the half-maximal inhibitory concentration (IC50) was determined as 481 nM.
For `CC(=O)N1C[C@@H]2[C@@H](C1)OCCN2c1ccc(-c2c(C)cc(C(F)(F)F)cc2O)nn1` (racemic) [Example 337, 1-[rac-(4aR,7aR)-4-[6-[2-hydroxy-6-methyl-4-(trifluoromethyl)phenyl]pyridazin-3-yl]-2,3,4a,5,7,7a-hexahydropyrrolo[3,4-b][1,4]oxazin-6-yl]ethanone], the IC50 stood at 2880 nM.
The same measure for `Cc1cc(C(F)(F)F)cc(O)c1-c1ccc(N2CC[C@@H]3NCC[C@@H]32)nn1` (racemic) [Example 346, 3-methyl-2-[6-[rac-(3aS,6aS)-2,3,3a,5,6,6a-hexahydro-1H-pyrrolo[3,2-b]pyrrol-4-yl]pyridazin-3-yl]-5-(trifluoromethyl)phenol;hydrochloride]: 212 nM.
Under `Cc1cc(C(F)(F)F)cc(O)c1-c1ccc(N2CC[C@@H]3CCN(C)C[C@H]32)nn1` (racemic) [Example 364, 2-[6-[rac-(3aS,7aS)-6-methyl-3,3a,4,5,7,7a-hexahydro-2H-pyrrolo[2,3-c]pyridin-1-yl]pyridazin-3-yl]-3-methyl-5-(trifluoromethyl)phenol] stands 858 nM; under `CCN1CC2OCCN(c3ccc(-c4c(C)cc(C(F)(F)F)cc4O)nn3)C2C1` (racemic) [Example 376, 3-methyl-2-[6-[rac-(4aR,7aR)-6-ethyl-2,3,4a,5,7,7a-hexahydropyrrolo[3,4-b][1,4]oxazin-4-yl]pyridazin-3-yl]-5-(trifluoromethyl)phenol], 180 nM; under `CC(=O)N1CC[C@H]2[C@@H]1CCN2c1ccc(-c2c(C)cc(C(F)(F)F)cc2O)nn1` (racemic) [Example 377, 1-[rac-(3aS,6aS)-1-[6-[2-hydroxy-6-methyl-4-(trifluoromethyl)phenyl]pyridazin-3-yl]-2,3,3a,5,6,6a-hexahydropyrrolo[3,2-b]pyrrol-4-yl]ethanone], 296 nM.
Under `CC(=O)N1CC[C@H]2CCN(c3ccc(-c4c(C)cc(C)cc4O)nn3)[C@H]2C1` (racemic) [Example 394, 1-[rac-(3aR,7aR)-1-[6-(2-hydroxy-4,6-dimethyl-phenyl)pyridazin-3-yl]-3,3a,4,5,7,7a-hexahydro-2H-pyrrolo[2,3-c]pyridin-6-yl]ethanone] stands 310 nM; under `Cc1cc(C)c(-c2ccc(N3CCO[C@@H]4CCOC[C@@H]43)nn2)c(O)c1` (racemic) [Example 403, 3,5-dimethyl-2-[6-[rac-(4aS,8aR)-3,4a,5,7,8,8a-hexahydro-2H-pyrano[4,3-b][1,4]oxazin-4-yl]pyridazin-3-yl]phenol], 366 nM.
For `Cc1cc(C)c(-c2ccc(N3CCOC4CCOCC43)nn2)c(O)c1` (racemic) [Example 421, 3,5-dimethyl-2-[6-[rac-(4aS,8aS)-3,4a,5,7,8,8a-hexahydro-2H-pyrano[4,3-b][1,4]oxazin-4-yl]pyridazin-3-yl]phenol], the IC50 was determined as 1230 nM.
With `Cc1cc(C(F)(F)F)cc(O)c1-c1ccc(N2CCO[C@@H]3CCOC[C@@H]32)nn1` (racemic) [Example 438, 3-methyl-2-[6-[rac-(4aS,8aR)-3,4a,5,7,8,8a-hexahydro-2H-pyrano[4,3-b][1,4]oxazin-4-yl]pyridazin-3-yl]-5-(trifluoromethyl)phenol], the 50% inhibitory concentration (IC50) stood at 411 nM.
Under `Cc1cc(C(F)(F)F)cc(O)c1-c1ccc(N2CCO[C@H]3CCOC[C@@H]32)nn1` (racemic) [Example 448, 3-methyl-2-[6-[rac-(4aS,8aS)-3,4a,5,7,8,8a-hexahydro-2H-pyrano[4,3-b][1,4]oxazin-4-yl]pyridazin-3-yl]-5-(trifluoromethyl)phenol] stands 370 nM; under `CCc1cc(C(F)(F)F)cc(O)c1-c1ccc(N2CC[C@@H]3CCN(C)C[C@@H]32)nn1` (racemic) [Example 452, 2-[6-[rac-(3aS,7aR)-6-methyl-3,3a,4,5,7,7a-hexahydro-2H-pyrrolo[2,3-c]pyridin-1-yl]pyridazin-3-yl]-3-ethyl-5-(trifluoromethyl)phenol], 5 nM.
The same measure for `CCN1CC[C@H]2CCN(c3ccc(-c4c(O)cccc4C(F)(F)F)nn3)[C@H]2C1` (racemic) [Example 458, 2-[6-[rac-(3aS,7aR)-6-ethyl-3,3a,4,5,7,7a-hexahydro-2H-pyrrolo[2,3-c]pyridin-1-yl]pyridazin-3-yl]-3-(trifluoromethyl)phenol]: 2 nM.
Under `CCc1cc(C)cc(O)c1-c1ccc(N2CC[C@@H]3CCN(C)C[C@@H]32)nn1` (racemic) [Example 459, 3-ethyl-5-methyl-2-[6-[rac-(3aS,7aR)-6-methyl-3,3a,4,5,7,7a-hexahydro-2H-pyrrolo[2,3-c]pyridin-1-yl]pyridazin-3-yl]phenol] stands 1 nM.
For the molecule `CCN1CC[C@H]2CCN(c3cc(C)c(-c4ccc(C)cc4O)nn3)[C@H]2C1` (racemic) [Example 460, 2-[6-[rac-(3aS,7aR)-6-ethyl-3,3a,4,5,7,7a-hexahydro-2H-pyrrolo[2,3-c]pyridin-1-yl]-4-methyl-pyridazin-3-yl]-5-methyl-phenol], the concentration for half-maximal inhibition (IC50) is less than 0.3 nM.
As to `Cc1cc(C(F)(F)F)cc(O)c1-c1ccc(N2CC[C@H]3[C@@H]2CCN3C)nn1` (racemic) [Example 484, 3-methyl-2-[6-[rac-(3aS,6aS)-1-methyl-2,3,3a,5,6,6a-hexahydropyrrolo[3,2-b]pyrrol-4-yl]pyridazin-3-yl]-5-(trifluoromethyl)phenol], the concentration for half-maximal inhibition (IC50) worked out at 25 nM.

(Values after patent publication US20240360151A1 (SANOFI, priority 2023, published 2024).)
